In patent publication US7910622B2, “Modulation of bacterial quorum sensing with synthetic ligands” (Wisconsin Alumni Research Foundation, priority 2007, dated 2011):
Entries after “also recorded” stand apart in the source; their conditions may differ. Read-outs that look alike come from different tables or passages of the source.

Assays:
[1] = molecular target: T1, LuxR (Aliivibrio fischeri, UniProt P35327); assay: cell-based; set-up: species or system Vibrio fischeri; conditions: for activation at 200 µM: read-out: V. fischeri-LuxR Activation [%], 200 μM ligand; for activation at 200 µM / V. fischeri-LuxR Activation [%]: normalized to OHHL; for V. fischeri-LuxR Activation [%]: 200 μM ligand
T1 construct: a Δ-luxI derivative of V. fischeri ES114, in which the native lux operon behaves as the bioluminescent reporter; endogenous in cells; host or cells: V. fischeri ES114 (Δ-luxI)
T1 sequence (P35327 whole entry): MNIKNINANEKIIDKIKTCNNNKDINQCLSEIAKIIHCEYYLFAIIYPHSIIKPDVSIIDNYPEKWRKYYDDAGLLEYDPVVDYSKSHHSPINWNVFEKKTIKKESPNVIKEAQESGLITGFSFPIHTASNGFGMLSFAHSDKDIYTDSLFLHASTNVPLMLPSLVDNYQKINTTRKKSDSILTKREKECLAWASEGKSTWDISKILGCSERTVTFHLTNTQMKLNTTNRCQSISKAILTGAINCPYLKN
In short: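 Whole-cell luminescence reporter in V. fischeri ES114 (WT, Δ-luxI or Δ-luxR) or E. coli, overnight cultures diluted 1:10 and grown with compound at RT (E. coli 30° C) to OD600 0.35-0.4 (4-6 h). Luminescence normalized to cell density, triplicates; EC50/IC50 from sigmoidal fit.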

[2] = molecular target: T2, LasR (Pseudomonas aeruginosa, UniProt P25084); assay: cell-based; conditions: for E. coli-LasR Activation [%]: 5 μM ligand; for E. coli-LasR Activation [%] / activation at 5 µM: E. coli DH5α (pJN105L pSC11), normalized to OdDHL; for activation at 5 µM: read-out: E. coli-LasR Activation [%], 5 μM ligand
T2 construct: expressed in transfected cells; host or cells: E. coli DH5α (pJN105L pSC11), arabinose-induced
T2 sequence (P25084 whole entry): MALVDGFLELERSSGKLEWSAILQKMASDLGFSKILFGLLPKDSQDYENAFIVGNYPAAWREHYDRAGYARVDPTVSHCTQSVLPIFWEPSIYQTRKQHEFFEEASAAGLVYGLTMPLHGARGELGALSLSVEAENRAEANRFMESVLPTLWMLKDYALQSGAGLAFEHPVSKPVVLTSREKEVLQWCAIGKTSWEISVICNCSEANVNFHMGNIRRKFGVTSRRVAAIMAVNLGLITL
In short: (§1)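 E. coli DH5α carrying pJN105L/pSC11 grown to OD600 0.3, LasR expression induced with arabinose (4 mg/mL), then incubated with AHLs at 37 °C to OD600 0.45. LasR activity read by β-galactosidase reporter assay; IC50/EC50 from sigmoidal dose-response fits.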

[3] = molecular target: T2, LasR; assay: cell-based; format: cell-based; conditions: for E. coli-LasR Inhibition [%]: 5 μM synthetic ligand against 7.5 nM OdDHL; for E. coli-LasR Inhibition [%] / inhibition at 5 µM: E. coli DH5α (pJN105L pSC11), normalized to OdDHL; for inhibition at 5 µM: read-out: E. coli-LasR Inhibition [%], 5 μM synthetic ligand against 7.5 nM OdDHL
In short: as §1

[4] = test system: elastase B production; assay: microbe, parasite or virus in culture; format: cell-based, Pseudomonas aeruginosa; conditions: for elastase B production inhibition: Example 2, concentration not stated (20 or 200 tested); for inhibition at 200 µM: Pseudomonas aeruginosa, PAO1, read-out: elastase B production inhibition
Experimental: Elastase B production assay in P. aeruginosa. Elastase B activity in P. aeruginosa was measured according to a previously reported method, with the following modifications. P. aeruginosa PAO1 was grown overnight in LB media at 37° C., after which it was diluted to an OD600=0.1. Portions (2 mL) of this culture was added to test tubes containing synthetic compounds to give final concentrations of 20 μM or 200 μM and incubated for 12-14 h at 37° C. with 200 rpm shaking. The OD600 was measured for each tube, after which the contents of the tubes were filtered through a […] Whatman filter to remove all cellular matter. A 100 μL-aliquot of the supernatant was added to 900 μL of an Elastin Congo Red Solution (5 mg of Elastin Congo red substrate per 1 mL of 100 mM Tris-HCl, 1 mM CaCl2 (pH 7.2)) and incubated for 12 h at 37° C. with 250 rpm shaking. The contents of these tubes were then filtered in order to remove unreacted Elastin Congo red substrate. Elastase B activity was then calculated (normalized) by dividing the absorbance of the cleaved Congo red (OD492) by the cell density (OD600 of the cells before first filtration).
Elastase B production assay in P. aeruginosa. Elastase B activity in P. aeruginosa was measured according to a previously reported method, with the following modifications. P. aeruginosa PAO1 was grown overnight at 37° C. and then diluted 1:10 with fresh LB medium. Portions (2 mL) of this culture were added to test tubes containing synthetic compounds to give final compound concentrations of 20 μM or 200 μM. The tubes were incubated for 12-14 h at 37° C. The OD600 was measured for each tube, after which the contents of the tubes were filtered through a 0.2 μm Whatman filter to remove all cellular matter. A 100 μL aliquot of the supernatant was added to 900 μL of an elastin-Congo red solution (5 mg of elastin-Congo red substrate per 1 mL of buffer (100 mM Tris-HCl, 1 mM CaCl2, pH 7.2)) and incubated for 12 h at 37° C. with 250 rpm shaking. The contents of these tubes were then filtered in order to remove unreacted elastin-Congo red substrate, and the supernatant containing cleaved Congo red was isolated. A 200 μL aliquot of the supernatant was added to a 96-well multititer plate, and the OD492 was measured. Elastase B activity was calculated by dividing the absorbance of the cleaved Congo red solution (OD492) by the cell density (OD600 of the cells before first filtration).

[5] = determined against 7.5 nM OdDHL, read-out: LasR IC50

Compound	E. coli-LasR Activation [%] [2]	IC50 [3, 5]	activation at 200 µM ([1]; V. fischeri ES114 (Δ-luxI))	activation at 5 µM [2]	E. coli-LasR Inhibition [%] [3]	elastase B production inhibition ([4]; P. aeruginosa PAO1)	V. fischeri-LuxR Activation [%] ([1]; V. fischeri ES114 (Δ-luxI))	inhibition at 5 µM [3]	inhibition at 200 µM [4]	also measured
3-nitro PHL [B17]	11%	0.61 µM	–	–	–	–	–	–	–	EC50 ([1]; V. fischeri ES114 (Δ-luxI), read-out: LuxR EC50): 0.35 µM; luminescence induced higher than native ligand OHHL ([1]; primary agonism assay, 200 μM, same concentration as OHHL): 29%; LasR: concentration at which the compound elicits its maximal inhibition (value in parentheses) ([3]; against 7.5 nM OdDHL, dose response curve did not reach 100% inhibition): 2.0 µM; activation of elastase B production at high concentration ([4]; P. aeruginosa PAO1, 10-fold higher concentration (200 vs 20)): activate elastase B production; also recorded: capable of both inhibiting and activating elastase B production
O=C(Cc1ccc(Br)cc1)N[C@H]1CCOC1=O [A17, 4-bromo-phenylacetanoyl HL, reference compound]	–	–	3%	0%	28%	ca. 76%	–	–	–	IC50 [3]: 3.89 µM
O=C(CCCc1c[nH]c2ccccc12)N[C@H]1CCOC1=O [A18, indole AHL, reference compound]	3%	8.38 µM	–	–	36%	~67%	3%	–	–	–
O=C(Cc1ccc(-c2ccccc2)cc1)NC1CCOC1=O (stereo not shown) [B21, 4-phenyl PHL]	–	–	7%	0%	–	poorly antagonized elastase B production	–	20%	–	–
O=C(Cc1ccc(-c2ccccc2)cc1)N[C@H]1CCOC1=O [C18, 4-phenyl PHL]	–	–	7%	0%	–	–	–	20%	4%	Activation (%) ([1]; V. fischeri-LuxR, Library C primary agonism screen): 7%; Activation (%) ([2]; E. coli-LasR, Library C primary agonism screen): 0%
O=C(Cc1ccc(Br)cc1)N[C@H]1CCOC1=O [compound 8, N-(4-bromo-phenylacetanoyl)-L-homoserine lactone, reference compound]	0%	–	–	–	–	–	3%	~25%	77%	IC50 ([3]; read-out: LasR IC50, determined against 7.5 nM OdDHL): 3.89 µM
